Reference: US6368788B1 (priority 1987, dated 2002)
Where “and” joins values, the source holds several entries; their conditions need not be identical. Equal entries are not always repeated.

What was measured:
[1] = tested on: Dengue virus; assay: Hemorrhagic Dengue Fever Protocol A; format: in vivo, human
Protocol: L-Glu-L-Trp was administered to 21 patients with hemorrhagic Dengue Fever, and 28 patients receiving conventional therapy served as controls. L-Glu-L-Trp was administered im single daily doses of 100 μg on each of 5 consecutive days as an adjunct to ongoing conventional therapy. […] The investigators also observed that L-Glu-L-Trp treated patients experienced a reduction in muscle and bone pain. Immunological indices in peripheral blood were also normalized.
Forty nine patients (20-30 years of age; Kinh nationality) with diagnosed Dengue Fever were entered into the trial. The patients were referred to the 175th Military Hospital in Ho Chi Minh City at the time of an epidemic of Dengue fever in the South […] Republic of Vietnam. Diagnosis was based on the criteria recommended by the World Health Organization (1986) using medical histories, and clinical and laboratory data. Serological analyses were conducted at the Arbovirus Infectious Diseases Laboratory of the Pasteur Institute in Ho Chi Minh City. […] Dyspeptic toxicosis, i.e., nausea and vomiting were rarely encountered (15% and 11.7%, respectively). Joint and muscle pains were pronounced, most commonly involving the spinal joints in the lumbar region (96.6%), joints of the pelvic girdle (82.2%), the ulnar joints (53.4%), as well as, the muscles of the lumbar (69%) and abdominal regions (69%). Exanthema (40.7%) and lymphadenopathy (46.7%) were evident in certain patients. […] Leukocytes during peak episodes of disease were recorded to be 4.60±0.17×10^9/L, and the absolute number of lymphocytes varied widely from 0.95 to 4.29×10^9/L.
Group 1 received conventional maintenance therapy consisting of detoxifying preparations and methods, e.g., fluids, fever control agents and the like. Group 2 received combination therapy, i.e., maintenance therapy and L-Glu-L-Trp, but only during periods of acute disease activity. L-Glu-L-Trp was administered at a dosage of 500 μg. The efficacy of the respective treatment protocols was evaluated by recording the most frequently used clinical indicia of Dengue disease activity: namely, the clinical indicia recorded in TABLE 45.

[2] = tested on: E-receptors on thymocytes; assay: Expression of E-receptors on trypsin-treated thymocytes (E-RFC); format: cell-based, guinea pigs; settings: for E-RFC (%): trypsin-treated thymocytes
Protocol: Thymus cells were isolated from male guinea pigs (180-200 g) under standard conditions of tissue mincing and differential centrifugation in Medium 199. Isolated thymocytes were treated with trypsin to remove cell surface E-receptors capable of binding rabbit erythrocytes (E). The percentage of cells capable forming E-rosettes (E-RFC) was decreased by about two-fold under these conditions.
L-Glu-L-Trp has been reported to restore T-cell receptors and E-RFC following incubation at 37° C. Studies were conducted in which the activity of L-Glu-L-Trp dipeptide were compared in the latter assay.
Thymocytes were prepared from 48 guinea pigs, treated with trypsin, and tested for E-RFC.

[3] = tested on: M. bovis; format: in vivo, mice; settings: mouse, in vivo
[4] = DTH sensitization to Oxazolone (ear thickness); format: in vivo, mice; settings: for Mean Ear Thickness ± S.D.: challenge day 7, measured at 24 hours
Protocol: Effects of L-Glu-L-Trp treatments on cell mediated immunity were evaluated by testing its effects on induction of a delayed-type hypersensitivity response in two different studies involving sensitization of mice to Oxazolone and guinea pigs to tuberculin.
In the first study L-Glu-L-Trp was administered ip at a dose of 10 μg/kg, or 1000 μg/kg one hour before a sensitizing dose of Oxazolone (0.1 mL of a 5% solution) was applied to the abdominal surface of a mouse. Seven days later skin sensitivity was measured by administering 25 μL of a 2% oxazolone solution to the right mouse ear and a sample of the diluent solution, as a control, to the left ear. Ear thickness was measured at 24 hours using a Dyer Model micrometer.

[5] = Combination L-Glu-L-Trp Therapy (n = 21)

For L-Glu-L-Trp, the “Duration of Symptom: Eye muscle pain” value [1, 5] was 6.6 ± 0.8 h, the “Duration of Symptom: Fever, At day 2-4 of illness” value [1, 5] was 4.7 ± 0.2 h and the “Duration of Symptom: Fever, At day 2-6 of illness” value [1, 5] was 5.2 ± 0.3 h. The “Duration of Symptom: Headache” value [1, 5] was 8.1 ± 0.9 h, the “Duration of Symptom: Hepatomegally” value [1, 5] was 11.3 ± 0.8 h and the “Duration of Symptom: Insomnia” value [1, 5] was 7.1 ± 0.7 h. The “Duration of Symptom: Joint pain” value [1, 5] was 7.4 ± 0.7 h, the “Duration of Symptom: Loss of appetite” value [1, 5] was 7.5 ± 0.8 h and the “Duration of Symptom: Lumbar pain” value [1, 5] was 8.7 ± 0.7 h. The “Duration of Symptom: Skeletal muscle pain” value [1, 5] was 7.7 ± 1.1 h, the “Duration of Symptom: Splenomegally” value [1, 5] was 9.6 ± 0.7 h and the “Duration of Symptom: Waist/Pelvic girdle pain” value [1, 5] was 8.1 ± 0.8 h. For the same substance, the “Duration of Symptom: Weakness” value [1, 5] was 9.3 ± 0.8 h, the Clinical outcome ([1]; in vivo) was “decrease in fever, reduction of toxic symptoms” and the “Percentage of E-RFC” value ([2]; 0.01-1 mg/mL) was “increased the percentage of E-RFC in trypsin-treated thymocyte cultures”. The “E-RFC (%)” value ([2]; Conc. 0.0001 mg/ml) was 30.3 ± 3.1 %, the “E-RFC (%)” value ([2]; Conc. 0.01 mg/ml) was 36.8 ± 2.4 % and the “E-RFC (%)” value ([2]; Conc. 1 mg/ml) was 42.8 ± 3.5 %. For the same substance, the Survival [3] was “significantly increased survival”, the “Survival Mean” value ([3]; ip) was 39 ± 2 and 36 ± 3 and 30 ± 2 and 33 ± 1 and 31 ± 1 and 28 ± 1 and the “Survival Median” value ([3]; ip) was 46 ± 10 and 28 ± 3 and 26 ± 1 and 34 ± 3 and 28 ± 1 and 25 ± 1. The “Mean Ear Thickness ± S.D.” value ([4]; 10 μg/kg ip one hour before Oxazolone sensitization) was 17 ± 1 μm, the DTH sensitivity ([4]; 1000 μg dose one hour prior to antigen) was “increase in DTH sensitivity to oxazolone” and the “Mean Ear Thickness ± S.D.” value ([4]; 1000 μg/kg ip one hour before Oxazolone sensitization) was 24 ± 1 μm.
